Experimental data published in the NIST ThermoML archive (doi:10.1021/je0341918).

Assay: xn = mol fraction of the nth substance listed
Settings: 101.3 kPa, Liquid

OCCCCO [1,4-butanediol] + O
Settings	mass density [kg/m3]	viscosity [mPa·s]
293.15 K, x1 = 0.0218	1001.44	1.792
293.15 K, x1 = 0.0478	1005.97	2.65
293.15 K, x1 = 0.0789	1010.98	3.889
293.15 K, x1 = 0.1175	1015.71	5.788
293.15 K, x1 = 0.1665	1019.86	8.755
293.15 K, x1 = 0.2305	1022.86	11.86
293.15 K, x1 = 0.3179	1024.32	19.07
293.15 K, x1 = 0.4441	1024.18	31.72
293.15 K, x1 = 0.6426	1021.57	56.69
293.15 K, x1 = 0.7917	1019.04	73.61
293.15 K, x1 = 0.8663	1017.74	80.53
293.15 K, x1 = 1	1015.76	90.33
303.15 K, x1 = 0.0218	998.53	1.418
303.15 K, x1 = 0.0478	1002.4	1.957
303.15 K, x1 = 0.0789	1006.62	2.756
303.15 K, x1 = 0.1175	1010.6	3.954
303.15 K, x1 = 0.1665	1014.11	5.775
303.15 K, x1 = 0.2305	1016.62	7.633
303.15 K, x1 = 0.3179	1017.88	12.09
303.15 K, x1 = 0.4441	1017.65	19.66
303.15 K, x1 = 0.6426	1015.15	34.96
303.15 K, x1 = 0.7917	1012.77	45.5
303.15 K, x1 = 0.8663	1011.48	49.82
303.15 K, x1 = 1	1009.54	55.98
313.15 K, x1 = 0.0218	994.86	1.176
313.15 K, x1 = 0.0478	998.21	1.522
313.15 K, x1 = 0.0789	1001.79	2.053
313.15 K, x1 = 0.1175	1005.16	2.835
313.15 K, x1 = 0.1665	1008.13	4.008
313.15 K, x1 = 0.2305	1010.28	5.198
313.15 K, x1 = 0.3179	1011.36	8.018
313.15 K, x1 = 0.4441	1011.09	12.78
313.15 K, x1 = 0.6426	1008.76	22.43
313.15 K, x1 = 0.7917	1006.4	29.65
313.15 K, x1 = 0.8663	1005.15	32.53
313.15 K, x1 = 1	1003.31	35.74
323.15 K, x1 = 0.0218	990.45	0.981
323.15 K, x1 = 0.0478	993.4	1.222
323.15 K, x1 = 0.0789	996.45	1.573
323.15 K, x1 = 0.1175	999.34	2.124
323.15 K, x1 = 0.1665	1001.87	2.909
323.15 K, x1 = 0.2305	1003.72	3.683
323.15 K, x1 = 0.3179	1004.68	5.573
323.15 K, x1 = 0.4441	1004.42	8.706
323.15 K, x1 = 0.6426	1002.32	14.6
323.15 K, x1 = 0.7917	1000	19.29
323.15 K, x1 = 0.8663	998.84	21.11
323.15 K, x1 = 1	997.14	23.63
333.15 K, x1 = 0.0218	985.4	0.871
333.15 K, x1 = 0.0478	987.96	1.042
333.15 K, x1 = 0.0789	990.59	1.281
333.15 K, x1 = 0.1175	993.09	1.652
333.15 K, x1 = 0.1665	995.27	2.191
333.15 K, x1 = 0.2305	996.89	2.705
333.15 K, x1 = 0.3179	997.78	4.017
333.15 K, x1 = 0.4441	997.58	6.143
333.15 K, x1 = 0.6426	995.75	10.12
333.15 K, x1 = 0.7917	993.6	13.04
333.15 K, x1 = 0.8663	992.48	14.29
333.15 K, x1 = 1	990.93	16.17
343.15 K, x1 = 0.0218	979.61	0.783
343.15 K, x1 = 0.0478	981.88	0.905
343.15 K, x1 = 0.0789	984.16	1.081
343.15 K, x1 = 0.1175	986.37	1.338
343.15 K, x1 = 0.1665	988.29	1.719
343.15 K, x1 = 0.2305	989.74	2.055
343.15 K, x1 = 0.3179	990.6	2.991
343.15 K, x1 = 0.4441	990.49	4.471
343.15 K, x1 = 0.6426	988.97	7.211
343.15 K, x1 = 0.7917	987.21	9.223
343.15 K, x1 = 0.8663	986.17	10.11
343.15 K, x1 = 1	984.81	11.45
353.15 K, x1 = 0.0218	973.52	0.723
353.15 K, x1 = 0.0478	975.53	0.809
353.15 K, x1 = 0.0789	977.47	0.94
353.15 K, x1 = 0.1175	979.3	1.108
353.15 K, x1 = 0.1665	981.05	1.381
353.15 K, x1 = 0.2305	982.41	1.804
353.15 K, x1 = 0.3179	983.3	2.283
353.15 K, x1 = 0.4441	983.33	3.358
353.15 K, x1 = 0.6426	982.14	5.276
353.15 K, x1 = 0.7917	980.68	6.743
353.15 K, x1 = 0.8663	979.77	7.321
353.15 K, x1 = 1	978.59	8.28
